In US20230053688A1, “METHODS TO ALTER LATENCY IN EBV+ MALIGNANCIES” (Cornell University, priority 2020, published 2023):
Where a name gives a salt, the structure may show the parent alone. Read-outs that look alike come from different tables or passages of the source.

System: LMP1 expression in Kem I cells
Assay: microbe, parasite or virus in culture
Assay type: cell-based, EBV
Details: for fold induction at 2.5 µM / fold induction at 1 µM: human gammaherpesvirus 4, 48 h; for Average LMP1 Fold Increase / Replicate 1-LMP1 Fold Increase / Replicate 2-LMP1 Fold Increase: Kem I cells, 48 hours
[1] = read-out: Average LMP1 Fold Increase, Kem I cells, 2.5 uM, 48 hours, average of replicates 1 and 2
[2] = read-out: Replicate 1-LMP1 Fold Increase, Kem I cells, 2.5 uM, 48 hours, fold change in LMP1 transcript vs vehicle
[3] = read-out: Replicate 2-LMP1 Fold Increase, Kem I cells, 2.5 uM, 48 hours, fold change in LMP1 transcript vs vehicle
[4] = 2.5 uM, average of replicates 1 and 2
[5] = 2.5 uM, fold change in LMP1 transcript vs vehicle
[6] = read-out: Average LMP1 Fold Increase, Kem I cells, 1 uM, 48 hours, average of replicates 1 and 2
[7] = read-out: Replicate 1-LMP1 Fold Increase, Kem I cells, 1 uM, 48 hours, fold change in LMP1 transcript vs vehicle
[8] = read-out: Replicate 2-LMP1 Fold Increase, Kem I cells, 1 uM, 48 hours, fold change in LMP1 transcript vs vehicle
[9] = dose 2.5 uM, LMP1 transcript by in-well qRT-PCR, average of the two replicates
[10] = dose 2.5 uM, LMP1 transcript by in-well qRT-PCR, screen replicate 1
[11] = dose 2.5 uM, LMP1 transcript by in-well qRT-PCR, screen replicate 2
[12] = 1 uM, fold change in LMP1 transcript vs vehicle
[13] = read-out: Average LMP1 Fold Increase, Kem I cells, dose 2.5 uM, 48 hours, LMP1 transcript by in-well qRT-PCR, average of the two replicates
[14] = read-out: Replicate 1-LMP1 Fold Increase, Kem I cells, dose 2.5 uM, 48 hours, LMP1 transcript by in-well qRT-PCR, screen replicate 1
[15] = read-out: Replicate 2-LMP1 Fold Increase, Kem I cells, dose 2.5 uM, 48 hours, LMP1 transcript by in-well qRT-PCR, screen replicate 2

In the case of `COc1ccc(C2CNC(=O)C2)cc1OC1CCCC1` (stereo not drawn) [Rolipram], the fold induction at 2.5 µM [1] is reported as 0.94, the fold induction at 2.5 µM [2] is reported as 1.13 and the fold induction at 2.5 µM [3] is reported as 0.75.
With `COc1cc(N2CCC(N)CC2)ccc1Nc1ncc(Cl)c(-c2c[nH]c3ccccc23)n1` [AZD3463] the “Average LMP1 Fold Increase” value [4] was 0.26, the “Replicate 1-LMP1 Fold Increase” value [5] was 0.28 and the “Replicate 2-LMP1 Fold Increase” value [5] was 0.24.
`Nc1nc(Cl)nc2c1ncn2[C@H]1C[C@H](O)[C@@H](CO)O1` [Cladribine] gave a fold induction at 1 µM [6] of 38.7, a fold induction at 1 µM [7] of 71.4 and a fold induction at 1 µM [8] of 6.02.
With `COc1cc2c(Nc3ccc(NC(=O)c4ccccc4)cc3)ncnc2cc1OCCCN1CCOCC1` [ZM 447439] the “Average LMP1 Fold Increase” value [9] was 0.37 fold, the “Replicate 1-LMP1 Fold Increase” value [10] was 0.34 fold and the “Replicate 2-LMP1 Fold Increase” value [11] was 0.40 fold.
`CN1CCN(c2nc(C3=C(c4c[nH]c5ccccc45)C(=O)NC3=O)c3ccccc3n2)CC1` [Sotrastaurin] showed a fold induction at 2.5 µM [1] of 0.31, a fold induction at 2.5 µM [2] of 0.3 and a fold induction at 2.5 µM [3] of 0.31.
`NCC(=O)Nc1ccc(-n2nc(C(F)(F)F)cc2-c2ccc3c(ccc4ccccc43)c2)cc1` [OSU-03012 (AR-12)] was tested, and the “Average LMP1 Fold Increase” value [4] was 0.95, the “Replicate 1-LMP1 Fold Increase” value [5] was 0.79 and the “Replicate 2-LMP1 Fold Increase” value [5] was 1.12.
In the case of `O=C(O)c1cc2cccc([N+](=O)[O-])c2[nH]1` [CRT0044876], the “Average LMP1 Fold Increase” value [4] is reported as 0.44, the “Replicate 1-LMP1 Fold Increase” value [5] is reported as 0.55 and the “Replicate 2-LMP1 Fold Increase” value [5] is reported as 0.33.
For `CNC(=O)[C@H](Cc1c[nH]c2ccccc12)NC(=O)[C@@H](CC(=O)NO)CC(C)C` [Ilomastat (GM6001, Galardin)], the “Average LMP1 Fold Increase” value [4] was 0.08, the “Replicate 1-LMP1 Fold Increase” value [5] was 0.05 and the “Replicate 2-LMP1 Fold Increase” value [5] was 0.12.
`NC(=O)c1ncn([C@@H]2O[C@H](CO)[C@@H](O)[C@H]2O)c1N` [Acadesine] gave a fold induction at 2.5 µM [1] of 0.58, a fold induction at 2.5 µM [2] of 0.57 and a fold induction at 2.5 µM [3] of 0.59.
In the case of `CCN(c1cc(-c2ccc(CN3CCOCC3)cc2)cc(C(=O)NCc2c(C)cc(C)[nH]c2=O)c1C)C1CCOCC1` [EPZ 6438], the fold induction at 1 µM [6] is reported as 24.5, the fold induction at 1 µM [7] is reported as 2.14 and the fold induction at 1 µM [8] is reported as 46.9.
For `CN(C)C(=O)[C@H](O)[C@H](Cc1ccccc1)NC(=O)c1cc2cc(Cl)ccc2[nH]1` [CP-91149], the “Average LMP1 Fold Increase” value [4] was 0.64, the “Replicate 1-LMP1 Fold Increase” value [5] was 0.49 and the “Replicate 2-LMP1 Fold Increase” value [5] was 0.80.
For `CCc1c(C(=O)NCCc2ccc(N3CCCCC3)cc2)[nH]c2ccc(Cl)cc12` [Org 27569], the “Average LMP1 Fold Increase” value [4] was 0.51, the “Replicate 1-LMP1 Fold Increase” value [5] was 0.49 and the “Replicate 2-LMP1 Fold Increase” value [5] was 0.53.
`Cc1nc(-c2cn3c(n2)-c2ccc(-c4cnn(C(C)(C)C(N)=O)c4)cc2OCC3)n(C(C)C)n1` [GDC-0032] was tested, and the “Average LMP1 Fold Increase” value (1 uM, average of replicates 1 and 2) was 1.23, the “Replicate 1-LMP1 Fold Increase” value [12] was 1.86 and the “Replicate 2-LMP1 Fold Increase” value [12] was 0.59.
With `C[C@]1(O)C[C@@H](c2nc(-c3ccc4ccc(-c5ccccc5)nc4c3)c3c(N)nccn32)C1` [OSI-906 (Linsitinib)] the “Average LMP1 Fold Increase” value [4] was 0.81, the “Replicate 1-LMP1 Fold Increase” value [5] was 0.68 and the “Replicate 2-LMP1 Fold Increase” value [5] was 0.94.
`O=c1ncn2nc(Sc3ccc(F)cc3F)ccc2c1-c1c(Cl)cccc1Cl` [VX-745] showed a fold induction at 2.5 µM [13] of 0.49, a fold induction at 2.5 µM [14] of 0.75 and a fold induction at 2.5 µM [15] of 0.24.
With `Cc1ccc([C@@H]2O[C@H](CO)[C@@H](O)[C@H](O)[C@H]2O)cc1Cc1ccc(-c2ccc(F)cc2)s1` [Canagliflozin] the “Average LMP1 Fold Increase” value [4] was 0.63, the “Replicate 1-LMP1 Fold Increase” value [5] was 0.52 and the “Replicate 2-LMP1 Fold Increase” value [5] was 0.75.
In the case of `Cc1cc2c(C(C)C)c(O)c(O)c(C=O)c2c(O)c1-c1c(C)cc2c(C(C)C)c(O)c(O)c(C=O)c2c1O` [AT101], the fold induction at 2.5 µM [1] is reported as 1.04, the fold induction at 2.5 µM [2] is reported as 0.51 and the fold induction at 2.5 µM [3] is reported as 1.58.
`Cn1c(=O)n(-c2ccc(C(C)(C)C#N)cc2)c2c3cc(-c4cnc5ccccc5c4)ccc3ncc21` [BEZ 235] was tested, and the fold induction at 1 µM [6] was 13.3, the fold induction at 1 µM [7] was 17.4 and the fold induction at 1 µM [8] was 9.2.
`CCCCNc1ncc(-c2ccc(CN3CCOCC3)cn2)c(NC2CCC(O)CC2)n1` (stereo not drawn) [UNC2250] was tested, and the “Average LMP1 Fold Increase” value [9] was 0.41 fold, the “Replicate 1-LMP1 Fold Increase” value [10] was 0.54 fold and the “Replicate 2-LMP1 Fold Increase” value [11] was 0.29 fold.
Work on `Clc1ccccc1CN1CCc2sccc2C1` [Ticlopidine HCl] yielded a fold induction at 2.5 µM [13] of 1.15, a fold induction at 2.5 µM [14] of 0.52 and a fold induction at 2.5 µM [15] of 1.78.
